Experimental data taken from patent publication US4016280A, “4,4-Diarylpiperidine compositions and use” (Byk Gulden Lomberg Chemische Fabrik GmbH, priority 1969, dated 1977).
Entries after “also recorded” stand apart in the source; their conditions may differ. Like-named read-outs stand apart in the source and are kept apart here.

How the values were obtained:
[1] = Acute toxicity in the albino mouse; settings: in vivo
Description: (§1) As stated above, the compounds of formula I have advantageous central nervous system stimulating properties. Side-effects, as they are encountered on administration of amphetamine-type stimulants, are produced to a much lesser extent by the 4,4-diphenylpiperidine compounds, if at all. […] The tests were carried out according to known and accepted pharmacological standard test methods.
a Acute toxicity 150 mg./kg. 100 mg./kg.

[2] = Marshall, Brit. J. Pharmacol. 10, 270 (1955), technique of Schild, cited from earlier work
[3] = system: albino mouse; experiment: Antagonism in the albino mouse of tremorine tremor; format: in vivo; settings: tremorine 15 mg/kg i.p., drug per os, Examples 28, 29: 50 to 300 mg/kg; for ED50: Mus musculus, po
Description: (§2) Antagonism in the albino mouse
(§3) of tion dation p.o.) i.p.)
(§4) *drugs administered per os
(§5) **administered in doses from 50 to 300 mg/kg

[4] = system: albino mouse; experiment: General behaviour of the albino mouse with different doses; format: in vivo; settings: albino mouse; for Locomotory activity / Restlessness Stereotype / Salivation / Vigilance: different doses per os, Examples 28, 29: 50 to 300 mg/kg
Description: Acute toxi- General behaviour of the albino
city in the mouse with different doses*
as §4, §5

[5] = system: albino mouse; experiment: Antagonism in the albino mouse of reserpine (preventive and curative ptosis/sedation); format: in vivo; settings: reserpine 2mg/kg sc., drug per os; for ED50: Mus musculus, po
Description: as §2
(§6) Com- Preventive Curative catalepsy
as §3, §4, §5

[6] = system: albino mouse; experiment: Antagonism in the albino mouse of perphenazine catalepsy; format: in vivo; settings: perphenazine 10 mg/kg p.o., drug per os, Examples 28, 29: 50 to 300 mg/kg; for ED50: Mus musculus, po
Description: as §2, §6, §3, §4, §5

[7] = Randall and Lehmann, J. Pharmacol. Exp. Therap. 93, 314 (1948), cited from earlier work
[8] = system: albino mouse; experiment: Locomotory activity (restlessness in movements); format: in vivo; settings: albino mouse 5 mg/kg. perorally
Description: as §1

[9] = Exophthalmus; settings: in vivo
Description: as §1
f Exophthalmus Absent Present

[10] = Increase in blood pressure; format: in vivo; settings: rats and dogs
Description: as §1
pressure (rats and increase

[11] = Potentiating effect on noradrenaline; settings: in vivo
Description: as §1

[12] = Tachyphylaxis; settings: in vivo
Description: as §1
g Tachyphylaxis None Pronounced

[13] = system: albino mouse; experiment: Saliva secretion; format: in vivo
Description: as §1
No secretion Pronounced

[14] = mouse, iv, Table 2, i.v., read-out: Acute toxicity in the albino mouse LD50 i.v.
[15] = mouse, po, Table 2, p.o., read-out: Acute toxicity in the albino mouse LD50 p.o.
[16] = listed as 1 methyl-4,4-diphenylpiperidine
[17] = Examples 28, 29: 50 to 300 mg/kg, read-out: Reserpine antagonism, Curative Sedation ED50
[18] = Examples 28, 29: 50 to 300 mg/kg, read-out: Reserpine antagonism, Curative ptosis ED50
[19] = read-out: Reserpine antagonism, Preventive Sedation ED50
[20] = read-out: Reserpine antagonism, Preventive ptosis ED50
[21] = Examples 28, 29: 50 to 300 mg/kg

CN1CCC(c2ccccc2)(c2ccccc2)CC1 [Example 1, 1-Methyl-4,4-diphenylpiperidine]
LD50 [1, 14]: 45 mg/kg | LD50 [1, 15]: 140 mg/kg | Antihistaminic activity ([2]; listed as 1-Methyl-4,4-diphenylpiperidine): devoid of any therapeutically utilizable antihistaminic activity | Antihistaminic activity [2, 16]: devoid of any therapeutically-utilizable antihistaminic activity | ED50 [3]: 1 mg/kg | Locomotory activity (in words) [4]: only slightly increased | Restlessness, stereotypia or salivation (in words) [4]: without causing restlessness, sterotypia or salivation | Vigilance of the animal (in words) [4]: strong increase | Locomotory activity [4]: (+) | Restlessness Stereotype [4]: .phi. (no effect) | Salivation [4]: .phi. (no effect) | Vigilance [4]: ++ | ED50 [5, 17]: 10 mg/kg | ED50 [5, 18]: > 50 mg/kg | ED50 [5, 19]: 3 mg/kg | ED50 [5, 20]: 4 mg/kg | ED50 [6]: 3 mg/kg | Analgesic activity ([7]; listed as 1-methyl-4,4-diphenylpiperidine): devoid of analgesic activity | Analgesic activity [7, 16]: devoid of analgesic action

CCN1CCC(c2ccccc2)(c2ccccc2)CC1 [Example 3, 1-Ethyl-4,4-diphenylpiperidine]
LD50 [1, 14]: 45 mg/kg | LD50 [1, 15]: 150 mg/kg | ED50 [3]: 1 mg/kg | Locomotory activity [4]: (+) | Restlessness Stereotype [4]: .phi. (no effect) | Salivation [4]: .phi. (no effect) | Vigilance [4]: ++ | ED50 [5, 17]: 50 mg/kg | ED50 [5, 18]: > 50 mg/kg | ED50 [5, 19]: 5 mg/kg | ED50 [5, 20]: 5 mg/kg | ED50 [6]: 2 mg/kg

OCCCN1CCC(c2ccccc2)(c2ccccc2)CC1 [Example 30, 1-(3-hydroxypropyl)-4,4-diphenylpiperidine]
LD50 [1, 14]: 32 mg/kg | ED50 [3]: 5 mg/kg | Locomotory activity (in words) [4]: only slightly increased | Restlessness, stereotypia or salivation (in words) [4]: without causing restlessness, sterotypia or salivation | Vigilance of the animal (in words) [4]: strong increase | Locomotory activity [4]: + (increase) | Restlessness Stereotype [4]: .phi. (no effect) | Salivation [4]: .phi. (no effect) | Vigilance [4]: ++ | ED50 [5, 19]: 25 mg/kg | ED50 [5, 20]: 25 mg/kg | Reserpine antagonism, Curative Sedation ED50 [5, 21]: .phi. (no effect) | Reserpine antagonism, Curative ptosis ED50 [5, 21]: (+) | ED50 [6]: 5 mg/kg

c1ccc(CN2CCC(c3ccccc3)(c3ccccc3)CC2)cc1 [Example 10, 1-Benzyl-4,4-diphenylpiperidine]
LD50 [1, 14]: 20 mg/kg | Locomotory activity (in words) [4]: only slightly increased | Restlessness, stereotypia or salivation (in words) [4]: without causing restlessness, sterotypia or salivation | Vigilance of the animal (in words) [4]: strong increase | Vigilance [4]: ++

CCC(C)N1CCC(c2ccccc2)(c2ccccc2)CC1 (stereo not drawn) [Example 26, 1-(secondary Butyl)-4,4-diphenylpiperidine]
LD50 [1, 14]: 19 mg/kg | Antihistaminic activity [2]: devoid of any therapeutically-utilizable antihistaminic activity; also recorded: devoid of any therapeutically utilizable antihistaminic activity | ED50 [3]: 5 mg/kg | Locomotory activity (in words) [4]: only slightly increased | Restlessness, stereotypia or salivation (in words) [4]: without causing restlessness, sterotypia or salivation | Vigilance of the animal (in words) [4]: strong increase | Locomotory activity [4]: (+) | Restlessness Stereotype [4]: .phi. (no effect) | Salivation [4]: .phi. (no effect) | Vigilance [4]: ++ | ED50 [5, 17]: 10 mg/kg | ED50 [5, 19]: 10 mg/kg | ED50 [5, 20]: 25 mg/kg | Reserpine antagonism, Curative ptosis ED50 [5, 21]: (+) | ED50 [6]: 7 mg/kg

c1ccc(C2(c3ccccc3)CCNCC2)cc1 [Example 19, 4,4-Diphenylpiperidine]
LD50 [1, 14]: 25 mg/kg | ED50 [3]: 2 mg/kg | Locomotory activity (in words) [4]: only slightly increased | Restlessness, stereotypia or salivation (in words) [4]: without causing restlessness, sterotypia or salivation | Vigilance of the animal (in words) [4]: strong increase | Locomotory activity [4]: (+) | Restlessness Stereotype [4]: .phi. (no effect) | Salivation [4]: .phi. (no effect) | Vigilance [4]: ++ | ED50 [5, 17]: 10 mg/kg | ED50 [5, 18]: > 50 mg/kg | ED50 [5, 19]: 5 mg/kg | ED50 [5, 20]: 10 mg/kg | ED50 [6]: 20 mg/kg

c1ccc(CCN2CCC(c3ccccc3)(c3ccccc3)CC2)cc1 [Example 5, 1-Phenethyl-4,4-diphenylpiperidine]
LD50 [1, 14]: 19 mg/kg | Tremorine tremor antagonism ED50 [3]: .phi. (no effect) | Locomotory activity [4]: - (decrease) | Restlessness Stereotype [4]: .phi. (no effect) | Salivation [4]: .phi. (no effect) | Vigilance [4]: + (increase) | Remark under Locomotory activity (Ataxy) ([4]; per os): Ataxy | ED50 [5, 19]: 3 mg/kg | ED50 [5, 20]: 3 mg/kg | Reserpine antagonism, Curative Sedation ED50 [5, 21]: (+) | Reserpine antagonism, Curative ptosis ED50 [5, 21]: (+)

OCCN1CCC(c2ccccc2)(c2ccccc2)CC1 [Example 9, 1-(2-Hydroxyethyl)-4,4-diphenylpiperidine]
LD50 [1, 14]: 33 mg/kg | ED50 [3]: 10 mg/kg | Locomotory activity (in words) [4]: only slightly increased | Restlessness, stereotypia or salivation (in words) [4]: without causing restlessness, sterotypia or salivation | Vigilance of the animal (in words) [4]: strong increase | Locomotory activity [4]: (+) | Restlessness Stereotype [4]: .phi. (no effect) | Salivation [4]: .phi. (no effect) | Vigilance [4]: ++ | ED50 [5, 17]: 15 mg/kg | ED50 [5, 19]: 8 mg/kg | ED50 [5, 20]: 10 mg/kg | Reserpine antagonism, Curative ptosis ED50 [5, 21]: (+) | ED50 [6]: 15 mg/kg

COCCCN1CCC(c2ccccc2)(c2ccccc2)CC1 [Example 7, 1-(3-Methoxypropyl)-4,4-diphenylpiperidine]
LD50 [1, 14]: 30 mg/kg | ED50 [3]: 3 mg/kg | Locomotory activity (in words) [4]: only slightly increased | Restlessness, stereotypia or salivation (in words) [4]: without causing restlessness, sterotypia or salivation | Vigilance of the animal (in words) [4]: strong increase | Locomotory activity [4]: (+) | Restlessness Stereotype [4]: .phi. (no effect) | Salivation [4]: .phi. (no effect) | Vigilance [4]: ++

CC(=O)CN1CCC(c2ccccc2)(c2ccccc2)CC1 [Example 17, 1-Acetonyl-4,4-diphenylpiperidine]
LD50 [1, 14]: 34 mg/kg | ED50 [3]: 17 mg/kg | Locomotory activity (in words) [4]: only slightly increased | Restlessness, stereotypia or salivation (in words) [4]: without causing restlessness, sterotypia or salivation | Vigilance of the animal (in words) [4]: strong increase | Locomotory activity [4]: (+) | Restlessness Stereotype [4]: .phi. (no effect) | Salivation [4]: .phi. (no effect) | Vigilance [4]: ++ | ED50 [5, 17]: ~25 mg/kg | ED50 [5, 18]: > 25 mg/kg | ED50 [5, 19]: 15 mg/kg | ED50 [5, 20]: 12 mg/kg | ED50 [6]: > 25 mg/kg

CC(=O)CCN1CCC(c2ccccc2)(c2ccccc2)CC1 [Example 32, 1-(2-Acetoethyl)-4,4-diphenylpiperidine]
Tremorine tremor antagonism ED50 [3]: 15 mg/kg | Locomotory activity (in words) [4]: only slightly increased | Restlessness, stereotypia or salivation (in words) [4]: without causing restlessness, sterotypia or salivation | Vigilance of the animal (in words) [4]: strong increase | Locomotory activity [4]: (+) | Restlessness Stereotype [4]: .phi. (no effect) | Salivation [4]: .phi. (no effect) | Vigilance [4]: ++ | Reserpine antagonism, Preventive Sedation ED50 [5]: 15 mg/kg | Reserpine antagonism, Preventive ptosis ED50 [5]: 10 mg/kg | Reserpine antagonism, Curative Sedation ED50 [5, 21]: ~ 50 mg/kg | Reserpine antagonism, Curative ptosis ED50 [5, 21]: > 60 mg/kg | Perphenazine catalepsy antagonism ED50 [6]: 45 mg/kg

CC(N)Cc1ccccc1 (stereo not drawn) [Amphetamine, reference compound]
Locomotory activity (restlessness in movements), increase by [8]: 100% | LD50 ([1]; po, Table 1, albino mouse perorally, read-out: Acute toxicity): 100 mg/kg | Exophthalmus [9]: Present | Increase in blood pressure [10]: Pronounced | Potentiating effect on noradrenaline [11]: Present | Tachyphylaxis [12]: Pronounced | Saliva secretion [13]: Pronounced
